Earlier results on one compound are cited in US20080314115A1, “Compliance Apparatus” (Zenics Limited, priority 2005, published 2008).

The conditions of this data set: after disulfiram dose.

Regarding `S=C=S` [carbon disulphide], the breath elimination half-life was 13.3 h.
